This is an account of results in PMC2809336, “Antidepressant Interactions with the NMDA NR1-1b Subunit” (Journal of Biophysics, 2008).

“Also recorded” adds a separate entry of the source.

Common to all, as to assay type: binding
Assay [1] has as its target T1, NMDA NR1-1b S1S2 domain (Rattus norvegicus, UniProt P35439).
T1 construct: (His)8-TSG-LVPRG(thrombin cut site)-S1(394-544)-GT-S2(663-800); (His)8-TSG-LVPRG (His8 tag with thrombin cut site) (N); made in house; host or cells: E. coli Origami B(DE3)
Briefly: Intrinsic tryptophan fluorescence quenching and λ max of emission. The settings on record: for Binding to NR1-1b S1S2 by intrinsic tryptophan fluorescence: desipramine, trimipramine, imipramine 137 μM, maprotiline 3.18 mM, nortriptyline 2.08 mM, paroxetine 3.75 mM, sertraline 1.88 mM, fluvoxamine 2.81 mM; for Binding to NR1-1b S1S2 in intrinsic and extrinsic fluorescence assays: concentrations as high as 5.21 mM; for λ max of the NR1-1b drug bound complex: excitation 290 nm, 25°C, apo 326.24 nm, drug at final quenching concentration. As for the experimental part:
(§1) Intrinsic fluorescence studies were performed in a Cary Eclipse fluorometer at 25°C. All emission scans were acquired from 300 to 400 nm upon excitation at 290 nm, with 10 nm excitation and emission slit widths in a 10 mm-path-length cell. Excitation was performed at 290 nm to minimize interference from both tyrosine residues in the NMDA NR1-1b S1S2 domain as well as the aromatic antidepressants being studied. Before data acquisition, samples were incubated for thirty seconds in the sample holder at 25°C. […] Thus, data was reported without a buffer subtraction.
All antidepressants were solubilized in 100% methanol to the highest attainable concentrations. To account for any effects methanol had on fluorescence intensity, protein spectra with methanol were collected, allowing direct comparison between samples with and without antidepressant. Each data set consisted of at least three independent emission spectra of identically prepared samples. The data is reported with error determined at the 95% confidence level.
The fluorescence intensity of the NR1-1b S1S2 domain was determined in the presence and absence of eachantidepressant with the appropriate blank subtraction. […] For all samples, the final concentration of methanol was kept at 1.8%.

The target in assay [2] is T1, NMDA NR1-1b S1S2 domain. The assay can be described thus: Extrinsic ANS fluorescence. The settings on record: ANS 1 : 1 with 5.29 μM NR1-1b S1S2, excitation 380 nm; drug concentrations as in Figure 4. As for the experimental part:
Extrinsic fluorescence studies were performed in a Cary Ec-lipse fluorometer at 25°C. All emission scans were acquired from 400 to 600 nm after excitation at 380 nm with 20 nm slit widths for emission and excitation in a 10 mm-path-length cell. Before data acquisition, samples were incubated for thirty seconds in the sample holder at 25°C. Blanks were collected both for the antidepressants and the NR1-1b S1S2 domain. Three emission spectra of identicallyprepared samples were averaged for each plot. 8-Anilino-1-naphthalenesulfonic acid (ANS, TCI America), in a 1 : 1 molar ratio, was added to 5.29 μM of the NR1-1b S1S2 domain premixed with antidepressant (at final concentrations as above for intrinsic quenching studies in addition to the SSRIs fluoxetine (8.62 μM) and fluvoxamine (2.81 mM) and the SNRI venlafaxine (29.07 μM)). As with all intrinsic assays, total methanol concentration was kept at 1.8%. Plots of intensity versus wavelength were constructed from averaged emission spectra.

Assay [3] addresses T1, NMDA NR1-1b S1S2 domain. Briefly: Stern-Volmer analysis, acrylamide quenching of tryptophan fluorescence. The note with it: acrylamide 16.3 to 113.9 mM, 5.29 μM NR1-1b S1S2 premixed with antidepressant; apo 1.61. The text has this: Plots of (F 0/F) −1 versus acrylamide concentration were constructed.
Assay [4] deals with T1, NMDA NR1-1b S1S2 domain. The assay can be described thus: Kd determination by intrinsic tryptophan fluorescence (double reciprocal, Benesi-Hildebrand plot). The note with it: 5.29 μM NR1-1b S1S2, buffer 3 pH 6.5, 25°C, error at 95% confidence level. As for the experimental part:
as §1
Protein samples were at a final concentration of 5.29 μM in buffer 3 (10 mM MES, pH 6.5, 25 mM NaCl, 1 mM glycine). All antidepressants were solubilized in 100% methanol to the highest attainable concentrations. To account for any effects methanol had on fluorescence intensity, protein spectra with methanol were collected, allowing direct comparison between samples with and without antidepressant. Each data set consisted of at least three independent emission spectra of identically prepared samples. The data is reported with error determined at the 95% confidence level.
A double reciprocal plot was used to determine Kd, which derives from the Benesi-Hildebrand relationship, provided there is a 1 : 1 binding stoichiometry. […] When 1/ΔF is plotted against 1/[L], a linear relationship exists. The intercept on the x-axis is − K d.. […]

The Kd is a measure of binding affinity in units of concentration.

T1 sequence (P35439 394-544): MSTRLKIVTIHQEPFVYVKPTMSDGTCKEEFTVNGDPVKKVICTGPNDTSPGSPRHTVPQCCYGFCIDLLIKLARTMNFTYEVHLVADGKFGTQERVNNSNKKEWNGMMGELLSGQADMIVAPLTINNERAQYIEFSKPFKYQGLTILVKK
T1 sequence (P35439 663-800): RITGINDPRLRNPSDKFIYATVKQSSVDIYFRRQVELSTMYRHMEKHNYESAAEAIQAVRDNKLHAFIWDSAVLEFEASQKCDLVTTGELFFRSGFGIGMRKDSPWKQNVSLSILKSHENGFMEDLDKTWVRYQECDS

As to `CNCCC(Oc1ccc(C(F)(F)F)cc1)c1ccccc1` (centres unmarked) [fluoxetine], the “Binding to NR1-1b S1S2 by intrinsic tryptophan fluorescence” value at NMDA NR1-1b S1S2 domain [1] is on record as “neither of which showed binding”. At NMDA NR1-1b S1S2 domain [2], the “ANS emission spectrum of the NR1-1b S1S2 complex versus ANS bound to apo S1S2 (binding)” value is reported as “confirmed the binding”.

As for `CN(C)CCCC1(c2ccc(F)cc2)OCc2cc(C#N)ccc21` (centres unmarked) [citalopram], the “Binding to NR1-1b S1S2 in intrinsic and extrinsic fluorescence assays” value was “no binding” on NMDA NR1-1b S1S2 domain [1] and “no evidence of binding” on NMDA NR1-1b S1S2 domain [1] (listed as Citalopram). Further, the “Binding to NR1-1b S1S2 by intrinsic tryptophan fluorescence” value at NMDA NR1-1b S1S2 domain [1] is “did not”.

For the molecule `CNCCCC12CCC(c3ccccc31)c1ccccc12` [maprotiline], at NMDA NR1-1b S1S2 domain [1], the “Binding to NR1-1b S1S2 by intrinsic tryptophan fluorescence” value is reported as “binding” and the “λ max of the NR1-1b drug bound complex” value came to 322.04 ± 1.83 nm. Also, at NMDA NR1-1b S1S2 domain [1] (listed as Maprotiline), the “λ max of the NR1-1b drug bound complex” value came to 322.04 nm. For the same molecule, at NMDA NR1-1b S1S2 domain [1] (intensity versus apo NR1-1b S1S2), the “Change of tryptophan fluorescence emission upon binding” value is recorded as “increases, rather than quenches”. This molecule registered a K sv at NMDA NR1-1b S1S2 domain [3] of 5.92 M⁻¹. Moreover, the “ANS emission spectrum of the NR1-1b S1S2 complex versus ANS bound to apo S1S2 (binding)” value at NMDA NR1-1b S1S2 domain [2] is “significantly different”.

With `COc1ccc(C(CN(C)C)C2(O)CCCCC2)cc1` (centres unmarked) [venlafaxine], the “Binding to NR1-1b S1S2 by intrinsic tryptophan fluorescence” value at NMDA NR1-1b S1S2 domain [1] was “did not; also recorded: neither of which showed binding”. Moreover, the “ANS emission spectrum of the NR1-1b S1S2 complex versus ANS bound to apo S1S2 (binding)” value at NMDA NR1-1b S1S2 domain [2] is recorded as “confirmed the binding”.

`CC(CN(C)C)CN1c2ccccc2CCc2ccccc21` (centres unmarked) [trimipramine] had a Kd on NMDA NR1-1b S1S2 domain [4] of 1090 ± 240 µM. For the same molecule, at NMDA NR1-1b S1S2 domain [1], the “Binding to NR1-1b S1S2 by intrinsic tryptophan fluorescence” value is “binding” and the “λ max of the NR1-1b drug bound complex” value was 327.27 nm. Further, at NMDA NR1-1b S1S2 domain [3], the K sv is 3.02 M⁻¹. Moreover, the “ANS emission spectrum of the NR1-1b S1S2 complex versus ANS bound to apo S1S2 (binding)” value on NMDA NR1-1b S1S2 domain [2] is reported as “significantly different”.

For the molecule `Fc1ccc([C@@H]2CCNC[C@H]2COc2ccc3c(c2)OCO3)cc1` [paroxetine], at NMDA NR1-1b S1S2 domain [1], the “Binding to NR1-1b S1S2 by intrinsic tryptophan fluorescence” value was “binding” and the “λ max of the NR1-1b drug bound complex” value worked out at 328.3 nm. In addition, at NMDA NR1-1b S1S2 domain [3], the K sv was 3.06 M⁻¹. In addition, the “ANS emission spectrum of the NR1-1b S1S2 complex versus ANS bound to apo S1S2 (binding)” value on NMDA NR1-1b S1S2 domain [2] is “significantly different”.

With `CNCCCN1c2ccccc2CCc2ccccc21` [desipramine], at NMDA NR1-1b S1S2 domain [1], the “Binding to NR1-1b S1S2 by intrinsic tryptophan fluorescence” value is “binding” and the “λ max of the NR1-1b drug bound complex” value is 326.77 nm. For the same molecule, the K sv on NMDA NR1-1b S1S2 domain [3] is 2.67 M⁻¹.

Regarding `COCCCC/C(=N\OCCN)c1ccc(C(F)(F)F)cc1` [fluvoxamine], at NMDA NR1-1b S1S2 domain [1], the “Binding to NR1-1b S1S2 by intrinsic tryptophan fluorescence” value is recorded as “binding” and the “λ max of the NR1-1b drug bound complex” value came out at 328.57 nm. At NMDA NR1-1b S1S2 domain [3], the K sv stood at 3.77 M⁻¹. Moreover, the “ANS emission spectrum of the NR1-1b S1S2 complex versus ANS bound to apo S1S2 (binding)” value on NMDA NR1-1b S1S2 domain [2] is listed as “significantly different”.
